Here are results for 1 substance from US9095573B2, “Method of biasing implanted human neural stem cells away from differentiation into glial cells by (+)phenserine to modulate the concentration of soluble βAPP in tissue or CSF” (priority 2005, dated 2015).

For assay [1], the system named is APP mRNA. Briefly: Real time RT-PCR analysis of APP gene expression in cortical and hippocampal tissues. The note with it: both APP23 and wild-type mice. The assay is classed as in vivo. The protocol:
Animals were subsequently divided into two groups that were either sacrificed following 14 days treatment (n=17 APP23 and n=13 wild-type, respectively) or received transplantation of HSNC into the lateral ventricle (n=13 APP23 mice and n=12 wild-type, respectively). […] Brains were removed, dissected into the hippocampus and cortex, and tissue samples were maintained on dry ice and stored at −80° C. until Western blotting and PCR experiments were performed. For the group of transplanted animals, these were transcardially perfused with PBS and 4% paraformaldehyde (pH 7.4). Brains were removed and post-fixed for 8-12 h in 4% paraformaldehyde, and cryoprotected in 20% sucrose-PBS overnight. […]
Total RNA from hippocampal and cortical tissues from each animal treated with either (+)-phenserine or saline was isolated with Trizol reagent (Invitrogen) according to the manufacturer's protocol. […] Relative quantification with Real-time PCR was determined using the MyiQ Real-Time PCR Detection System Software (Bio-Rad), and reactions were performed in a thermal iCycler using the Bio-Rad MyiQ IQ SYBR Green Supermix (Bio-Rad) according to the following conditions; denaturation of cDNA for 5 min at 94° C.; amplification (40 cycles) for 30 sec at 94° C., annealing at 56° C. for 30 sec, and extension at 72° C. for 30 sec, with a final extension at 72° C. for 5 min. […]
(In general: In qPCR the cycle at which signal appears reflects the starting amount.)

Assay [2] relates to cholinesterase. The note with it: Greig et al., U.S. Patent Pub. 2004/0024043 and 2004/0138282; cited from earlier work.
The test system of assay [3] is transplanted human neural stem cells (HNSCs). Briefly: Neuronal differentiation of transplanted HNSCs (BrdU+/β-III tubulin+ cell counts, fluorescent immunohistochemistry). In kind it is in vivo, APP23 and wild-type mice. The note with it: wild-type mice, CA1 hippocampal region only; p<0.05; 25 mg/kg. The protocol:
(§1) HNSCs originally isolated from fetal cortical tissue were purchased from BioWhittaker (Walkersville, Md.) and the cells were expanded and passaged in a serum-free culture medium, as described in detail previously (Brannen and Sugaya, 2000). Briefly, HNSCs were cultured in 20 ml serum-free supplemented growth medium consisting of Ham's F12/DMEM (Gibco, Burlington, ON), EGF (20 ng/ml, R & D Systems), FGF (20 ng/ml, R & D Systems, Minneapolis, Minn.), B27 (1:50, Gibco), heparin (5 μg/ml, Sigma, St. Louis, Mo.) and antibiotic-antimycotic mixure (1:100, Gibco) at 37° C. in a 5% humidified incubation chamber (Brannen and Sugaya, 2000). Prior to transplantation, HNSCs were incubated with 3 μM bromo-deoxyuridine (BrdU, Sigma) for 48 hr to label cell nuclei to distinguish them from the host cells.
(§2) Animals were subsequently divided into two groups that were either sacrificed following 14 days treatment (n=17 APP23 and n=13 wild-type, respectively) or received transplantation of HSNC into the lateral ventricle (n=13 APP23 mice and n=12 wild-type, respectively). […] Brains were removed, dissected into the hippocampus and cortex, and tissue samples were maintained on dry ice and stored at −80° C. until Western blotting and PCR experiments were performed. For the group of transplanted animals, these were transcardially perfused with PBS and 4% paraformaldehyde (pH 7.4). […]

The test system is the same in assay [4]. Briefly: Glial differentiation of transplanted HNSCs (BrdU+/GFAP+ cell counts, fluorescent immunohistochemistry). The assay is classed as in vivo, APP23 and wild-type mice. Particulars: hippocampus of wild-type mice; 6 weeks after HNSC transplantation; 25 mg/kg. The protocol:
as §1, §2

As to (+)-phenserine, the “change in APP gene expression” value in assay [1] is listed as “no significant changes”. Also, in assay [2], the cholinesterase activity entry is “lacks cholinesterase activity”. Besides, the “increase in number of BrdU+/β-III tubulin+ cells” value in assay [3] is 40%. The “difference in number of BrdU+/GFAP+ double immuno-positive cells” value in assay [4] was “No significant differences”.
